Source: patent US20240252488A1 (KOREA RESEARCH INSTITUTE OF CHEMICAL TECHNOLOGY, priority 2020, published 2024)

Key:
MLKL [1] = target: T1, MLKL (Homo sapiens, UniProt Q8NB16); experiment: Measurement of binding affinity with MLKL receptor (competitive binding assay, Kd); parameters: made in house; host or cells: HEK 293 cell line (T7 phage in E. coli BL21-derived host is also described)
T1 sequence (Q8NB16 1-471): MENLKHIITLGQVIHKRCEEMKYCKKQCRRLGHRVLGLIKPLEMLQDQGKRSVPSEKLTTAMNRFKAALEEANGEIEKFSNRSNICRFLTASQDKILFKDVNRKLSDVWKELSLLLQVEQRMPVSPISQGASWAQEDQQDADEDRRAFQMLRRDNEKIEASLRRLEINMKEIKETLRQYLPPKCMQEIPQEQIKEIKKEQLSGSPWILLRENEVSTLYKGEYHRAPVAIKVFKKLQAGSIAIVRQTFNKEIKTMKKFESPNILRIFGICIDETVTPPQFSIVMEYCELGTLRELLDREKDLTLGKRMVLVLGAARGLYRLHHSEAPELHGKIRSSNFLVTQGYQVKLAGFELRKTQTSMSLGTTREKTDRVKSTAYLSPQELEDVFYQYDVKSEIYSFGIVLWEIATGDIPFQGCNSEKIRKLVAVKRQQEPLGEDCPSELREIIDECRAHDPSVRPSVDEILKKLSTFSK
Procedure, shortened: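 qPCR of MLKL eluted from liganded beads served as the read-out, from which Kd was derived. The protein was made in HEK 293 cells with a DNA tag, and test compounds competed with the bead-bound ligand at 0.9% final DMSO.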

FADD−/− Jurkat cells = experiment: Necroptosis inhibition assay, TNF-α-induced necroptosis (CellTiter-Glo 2.0); assay type: cell-based, human; conditions: TNF-α 15 ng/mL; for Necroptosis inhibition assay (Rescue %) 1 μM: compound 1 μM; for Necroptosis inhibition assay (Rescue %) 10 μM: compound 10 μM
Procedure, shortened: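 Cells at 5.0×10^5 cells/mL were pretreated with compound (final 0.1, 1 and 10 μM) for 30 minutes at room temperature, then given TNF-α at 15 ng/mL final. After 20 to 24 hours at 37° C, 5% CO2, viability was read as ATP luminescence to calculate cytotoxicity and necroptosis inhibition rate.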

MLKL [2] = target: T1, MLKL; experiment: MLKL degradation assay in HepG2 cell line (western blot); assay type: cell-based; parameters: endogenous in cells; host or cells: HepG2 or HaCaT; conditions: cell line not given; for Degradation assay (Degradation %) 1 μM: compound 1 μM; for Degradation assay (Degradation %) 10 μM: compound 10 μM
Procedure, shortened: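 HepG2 cells were exposed to compound at a final 1 or 10 μM for 20-24 hours at 37 °C, 5% CO2. RIPA lysates were normalized by BCA assay, 10-15 μg protein resolved by SDS-PAGE, and MLKL levels detected by western blot with chemiluminescence.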

Compound	Kd (MLKL [1])	Necroptosis inhibition assay (Rescue %) 1 μM (FADD−/− Jurkat cells; FADD−/− Jurkat cells)	Necroptosis inhibition assay (Rescue %) 10 μM (FADD−/− Jurkat cells; FADD−/− Jurkat cells)	Degradation assay (Degradation %) 1 μM (MLKL [2])	Degradation assay (Degradation %) 10 μM (MLKL [2])	Necroptosis inhibition assay (Rescue %) 1 μM (FADD−/− Jurkat cells)	Necroptosis inhibition assay (Rescue %) 10 μM (FADD−/− Jurkat cells)
Nc1ncc(-c2cnn(C3CCN(C(=O)CC4CCN(C(=O)C5CN(c6ccc7nnn(C8CCC(=O)NC8=O)c(=O)c7c6)C5)CC4)CC3)c2)nc1C(=O)O[C@@H](C(=O)Nc1ccc(F)cc1)c1ccccc1 (stereo partly drawn) [TDH-406, (R)-2-((4-fluorophenyl)amino)-2-oxo-1-phenylethyl 3-amino-6-(1-(1-(2-(1-(1-(3-(2,6-dioxopiperidin-3-yl)-4-oxo-3,4-dihydrobenzo[d][1,2,3]triazin-6-yl)azetidine-3-carbonyl)piperidin-4-yl)acetyl)piperidin-4-yl)-1H-pyrazol-4-yl)pyrazine-2-carboxylate]	6.5 nM	44.99%	39.97%	77.69%	60.15%		
Nc1ncc(-c2cnn(C3CCN(CCCCCCCCCCNC(=O)C4CCN(c5ccc6nnn(C7CCC(=O)NC7=O)c(=O)c6c5)CC4)CC3)c2)nc1C(=O)O[C@@H](C(=O)Nc1ccc(F)cc1)c1ccccc1 (stereo partly drawn) [TDH-177, (R)-2-((4-fluorophenyl)amino)-2-oxo-1-phenylethyl 3-amino-6-(1-(1-(10-(1-(3-(2,6-dioxopiperidin-3-yl)-4-oxo-3,4-dihydrobenzo[d][1,2,3]triazin-6-yl)piperidine-4-carboxamido)decyl)piperidin-4-yl)-1H-pyrazol-4-yl)pyrazine-2-carboxylate]	84 nM			36.03%	75.8%	41.3%	48.7%
Nc1ncc(-c2cnn(C3CCN(CCOCCNC(=O)CNc4cccc5c4C(=O)N(C4CCC(=O)NC4=O)C5=O)CC3)c2)nc1C(=O)O[C@@H](C(=O)Nc1ccc(F)cc1)c1ccccc1 (stereo partly drawn) [TDH-096, (R)-2-((4-fluorophenyl)amino)-2-oxo-1-phenylethyl 3-amino-6-(1-(1-(2-(2-(2-((2-(2,6-dioxopiperidin-3-yl)-1,3-dioxoisoindolin-4-yl)amino)acetamido)ethoxy)ethyl)piperidin-4-yl)-1H-pyrazol-4-yl)pyrazine-2-carboxylate]	4 nM			60.02%	68.41%	32.98%	30.53%
Nc1ncc(-c2cnn(C3CCN(CC4CCN(C(=O)CNc5ccc6c(c5)C(=O)N(C5CCC(=O)NC5=O)C6=O)CC4)CC3)c2)nc1C(=O)O[C@@H](C(=O)Nc1ccc(F)cc1)c1ccccc1 (stereo partly drawn) [TDH-137, (R)-2-((4-fluorophenyl)amino)-2-oxo-1-phenylethyl 3-amino-6-(1-(1-((1-((2-(2,6-dioxopiperidin-3-yl)-1,3-dioxoisoindolin-5-yl)glycyl)piperidin-4-yl)methyl)piperidin-4-yl)-1H-pyrazol-4-yl)pyrazine-2-carboxylate]	2.8 nM			54.49%	54.94%	76.05%	63.68%
Nc1ncc(-c2cnn(C3CCN(C(=O)CC4CCN(C(=O)CNc5cccc6nnn(C7CCC(=O)NC7=O)c(=O)c56)CC4)CC3)c2)nc1C(=O)O[C@@H](C(=O)Nc1ccc(F)cc1)c1ccccc1 (stereo partly drawn) [TDH-411, (R)-2-((4-fluorophenyl)amino)-2-oxo-1-phenylethyl 3-amino-6-(1-(1-(2-(1-((3-(2,6-dioxopiperidin-3-yl)-4-oxo-3,4-dihydrobenzo[d][1,2,3]triazin-5-yl)glycyl)piperidin-4-yl)acetyl)piperidin-4-yl)-1H-pyrazol-4-yl)pyrazine-2-carboxylate]	5.7 nM	9.91%	10.81%	53.86%	44.78%		
